Reference: publication PMC6798376, “Production of galactitol from galactose by the oleaginous yeast Rhodosporidium toruloides IFO0880” (Biotechnology for Biofuels, 2019)

How the values were obtained:
[1] = target: T1, AldR (aldose reductase; also printed AdhR) (Rhodotorula toruloides, UniProt A0A2S9ZVX5); test: spectrophotometric NADPH assay at […] nm; product galactitol by HPLC; assay type: biochemical; details: NADPH as coenzyme; 10 mM galactose; 20 mM Tris-HCl pH 7.0; 25 °C
[2] = target: T1, AldR (aldose reductase; also printed AdhR); test: spectrophotometric NADPH assay at […] nm; assay type: biochemical; details: 10 mM galactose as co-substrate; 20 mM Tris-HCl pH 7.0; 25 °C

T1 sequence (A0A2S9ZVX5 entry or part of it): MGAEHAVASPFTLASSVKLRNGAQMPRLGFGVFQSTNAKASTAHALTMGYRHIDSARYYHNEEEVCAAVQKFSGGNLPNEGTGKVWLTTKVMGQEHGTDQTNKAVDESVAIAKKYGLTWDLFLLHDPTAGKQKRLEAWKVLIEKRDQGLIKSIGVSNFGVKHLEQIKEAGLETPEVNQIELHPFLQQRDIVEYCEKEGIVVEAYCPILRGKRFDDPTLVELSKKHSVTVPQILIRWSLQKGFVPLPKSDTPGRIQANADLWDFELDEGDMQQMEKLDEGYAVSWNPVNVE

SMILES: OC[C@H]1OC(O)[C@H](O)[C@@H](O)[C@H]1O (some centres unmarked) [galactose]
- spectrophotometric NADPH assay at 340 nm; product galactitol by HPLC [1]: The recombinant enzyme exhibited activity against galactose with NADPH as the coenzyme

SMILES: NC(=O)C1=CN([C@@H]2O[C@H](COP(=O)(O)OP(=O)(O)OC[C@H]3O[C@@H](n4cnc5c(N)ncnc54)[C@H](OP(=O)(O)O)[C@@H]3O)[C@@H](O)[C@H]2O)C=CC1 [NADPH]
- spectrophotometric NADPH assay at 340 nm [2]: AldR is an NADPH-dependent enzyme, like other galactose reductases
